From the supplement of paper PMC10307832

Legend:
Assay in all cases: relative viability (nuclei count vs DMSO), 5 days (fraction); higher = more cells survive
[1] = compound: CN(c1ncccc1CNc1nc(Nc2ccc3c(c2)CC(=O)N3)ncc1C(F)(F)F)S(C)(=O)=O + CC1(C)CCC(c2ccc(Cl)cc2)=C(CN2CCN(c3ccc(C(=O)NS(=O)(=O)c4ccc(N[C@H](CCN5CCOCC5)CSc5ccccc5)c(S(=O)(=O)C(F)(F)F)c4)cc3)CC2)C1 [Navitoclax] (partner 0.5 µM)
Summary of the method: (§1)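 Each reported value is a median over duplicate plates. It expresses relative viability: treated-well nuclei count divided by vehicle-well nuclei count. Lung cancer cell lines in 1536-well plates were dosed by pin tool a day after seeding, alone with one drug or with a fixed anchor-drug dose plus five library-drug doses (not always all listed) in √10 steps, and nuclei were counted after 5 days.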

[2] = compound: CN(c1ncccc1CNc1nc(Nc2ccc3c(c2)CC(=O)N3)ncc1C(F)(F)F)S(C)(=O)=O + C[C@]1(O)C[C@@H](c2nc(-c3ccc4ccc(-c5ccccc5)nc4c3)c3c(N)nccn32)C1 [Linsitinib] (partner 1 µM)
Summary of the method: as §1

[3] = compound: CN(c1ncccc1CNc1nc(Nc2ccc3c(c2)CC(=O)N3)ncc1C(F)(F)F)S(C)(=O)=O + Nc1nc2[nH]cc(CCc3ccc(C(=O)N[C@@H](CCC(=O)O)C(=O)O)cc3)c2c(=O)[nH]1 [Pemetrexed] (partner 0.2 µM)
Summary of the method: as §1

[4] = compound: CN(c1ncccc1CNc1nc(Nc2ccc3c(c2)CC(=O)N3)ncc1C(F)(F)F)S(C)(=O)=O + O=C(CCCCCCC(=O)Nc1ccccc1)NO [Vorinostat] (partner 1 µM)
Summary of the method: as §1

Cell Line	relative viability ([1]; first compound 0.01 µM)	relative viability ([1]; first compound 0.03162 µM)	relative viability ([1]; first compound 0.1 µM)	relative viability ([1]; first compound 0.3162 µM)	relative viability ([1]; first compound 1 µM)	relative viability ([2]; first compound 0.01 µM)	relative viability ([2]; first compound 0.03162 µM)	relative viability ([2]; first compound 0.1 µM)	relative viability ([2]; first compound 0.3162 µM)	relative viability ([2]; first compound 1 µM)	relative viability ([3]; first compound 0.01 µM)	relative viability ([3]; first compound 0.03162 µM)	relative viability ([3]; first compound 0.1 µM)	relative viability ([3]; first compound 0.3162 µM)	relative viability ([3]; first compound 1 µM)	relative viability ([4]; first compound 0.01 µM)	relative viability ([4]; first compound 0.03162 µM)	relative viability ([4]; first compound 0.1 µM)	relative viability ([4]; first compound 0.3162 µM)	relative viability ([4]; first compound 1 µM)
NCI-H1755	1.01	1.03	0.972	0.94	0.875	0.997	0.951	0.961	0.979	0.908	0.478	0.451	0.426	0.398	0.487	0.79	0.756	0.787	0.75	0.66
NCI-H1793	0.407	0.562	0.498	0.377	0.303	0.883	0.929	0.894	0.857	0.601	1.05	0.912	0.934	0.919	0.931	0.866	0.724	0.785	0.699	0.713
NCI-H1915	0.803	0.849	0.786	0.765	0.728	1.1	1.1	0.983	1.1	1.02	0.528	0.569	0.455	0.517	0.538	0.535	0.534	0.593	0.536	0.519
NCI-H1944	0.984	1.06	1.11	1	1.11	1.22	1.18	1.16	1.13	1.28	0.642	0.612	0.646	0.592	0.613	0.587	0.508	0.586	0.585	0.534
NCI-H1975	1.01	1.12	1.11	1.01	0.854	1.01	1.22	1.02	0.925	0.821	0.296	0.283	0.275	0.296	0.288	0.726	0.688	0.666	0.71	0.613
NCI-H1993	0.822	0.892	0.998	0.911	0.9	0.678	0.727	0.78	0.771	0.736	0.584	0.593	0.538	0.641	0.572	0.831	0.773	0.805	0.709	0.577
NCI-H2009	1.12	1.16	1.13	1.1	1.07	1.14	1.18	1.18	1.24	1.09	1.03	1	0.923	1.01	0.948	0.724	0.838	0.693	0.75	0.685
NCI-H2023	0.998	1.1	0.985	0.938	0.837	0.765	0.714	0.73	0.71	0.631	0.181	0.241	0.221	0.228	0.214	0.636	0.826	0.666	0.709	0.487
NCI-H2085	1.09	1.17	1.13	1.19	0.934	0.925	0.981	0.895	0.842	0.776	0.917	0.774	0.885	0.953	0.947	0.816	0.837	0.761	0.734	0.691
NCI-H2087	1.06	1.12	1.05	1.04	0.937	1.03	1.04	1.14	1.16	0.99	0.695	0.751	0.685	0.728	0.584	0.722	0.872	0.901	0.613	0.589
NCI-H2126	0.838	0.893	0.849	0.894	0.776	0.698	0.776	0.714	0.721	0.7	0.7	0.718	0.615	0.697	0.632	0.76	0.845	0.642	0.831	0.701
NCI-H2228	0.732	1.18	0.783	0.755	0.741	0.502	0.286	0.627	1.06	0.929	0.368	0.343	0.366	0.313	0.355	0.42	0.579	0.758	0.882	0.547
NCI-H2347	0.879	0.69	0.699	0.701	0.592	0.938	0.98	0.852	0.947	0.817	0.474	0.434	0.403	0.44	0.399	0.584	0.615	0.527	0.54	0.413
NCI-H2405	0.802	0.993	0.66	0.705	0.679	0.899	0.935	0.818	0.865	0.824	1.06	1.01	0.984	0.924	0.832	0.961	0.724	0.971	0.761	0.868
NCI-H3122	1.07	1.01	0.941	0.977	0.936	1.02	1.06	0.939	0.966	0.843	0.202	0.194	0.175	0.181	0.193	1.03	0.963	1.04	1	1.06
PC-3 [JPC-3]	0.821	0.863	0.823	0.833	0.787	0.984	1.01	0.938	0.925	0.835	1.02	–	1.13	1.07	1.18	0.826	–	0.775	0.795	0.753
